Test results reported in US10344001B2, “Azolylacryloyl derivatives as therapeutic agents for sickle cell disease” (VIRGINIA COMMONWEALTH UNIVERSITY, priority 2015, dated 2019).

What was measured:
[1] = Reactivity toward free L-cysteine (UPLC-MS of compound and adduct); conditions: incubated with L-Cys for 3 hours; for Ratio of Cpd/Adduct (Adduct peak): share of L-cysteine adduct peak; for Ratio of Cpd/Adduct (Compound peak): share of unreacted compound peak; for Reactivity with L-Cys (adduct share): values in text
Source text: The above synthesized KAUS compounds were expected to covalently bind to Hb through a Michael addition reaction with the βCys93 at the surface of the protein to effect their allosteric and antisickling activities. We therefore investigated L-Cys conjugates with KAUS-28, KAUS-29, KAUS-33, KAUS-38 and KAUS-39 with ECA as a positive control using UPLC-MS analysis as previously described^20 with an Acquity H-Class UPLC which is connected to a PDA detector and an Acquity TQD detector. The column used was an Acquity UPLC BEH C18 1.7 μm, 2.1×50 mm, with a Vanguard pre-column attached. Solvent A consisted of water with 0.02% formic acid, while solvent B consisted of 90:10 acetonitrile:water with 0.02% formic acid. A gradient run was performed such that solvent B was increased from 0% B to 100% B from time 0-5 mins, followed by 3 minute wash at 100% B and then a return and re-equilibration at 100% A in the next 4 mins. The flow rate was maintained at 0.5 ml/min throughout the run. 2 μL of sample was injected per run. […] The eluent was then introduced into the TQD detector. The TQD detector was set at positive ionization mode with a capillary voltage of 3.20 kV, cone voltage of 20 V, extractor voltage of 1 V, and RF lens voltage of 0.1 V. The source temperature was set at 150° C., while the desolvation temperature was set at 350° C. and the desolvation and cone gas flows were set at 650 and 50 L/hr respectively. Scans were made from 100-700 m/z with scan duration of 0.5 seconds to obtain mass spectra at different time points.

[2] = target: T1, Hb in normal whole blood (Homo sapiens, UniProt P68871+P69905); assay: Oxygen equilibrium curve (OEC) study in normal whole blood, multipoint tonometry; assay type: cell-based; conditions: hematocrit 20%, 1.5 h at 37° C.
T1 construct: Normal whole blood was collected from adult donors at the Virginia Commonwealth University; endogenous in cells; host or cells: erythrocytes in normal adult human whole blood (hematocrit 20%)
T1 sequence (P69905 2-142 limits assumed): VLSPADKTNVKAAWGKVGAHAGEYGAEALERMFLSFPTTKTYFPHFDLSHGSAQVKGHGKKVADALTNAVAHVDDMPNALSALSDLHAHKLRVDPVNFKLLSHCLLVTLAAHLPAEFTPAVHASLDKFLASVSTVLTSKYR
T1 sequence (P68871 2-147 limits assumed): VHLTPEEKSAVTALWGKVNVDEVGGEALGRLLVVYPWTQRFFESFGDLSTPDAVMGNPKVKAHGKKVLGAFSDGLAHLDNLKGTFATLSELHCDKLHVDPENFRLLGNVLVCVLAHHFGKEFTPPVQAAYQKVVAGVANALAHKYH
Source text: (§1) De-identified, leftover EDTA venous blood samples from patients with SCD who visited The Children's Hospital of Philadelphia for routine clinic visits, were obtained after informed consent and used for antisickling study. Normal whole blood was collected from adult donors at the Virginia Commonwealth University after informed consent and used for oxygen equilibrium curve study. Hb was purified from discarded normal blood samples following published procedure and used for OEC study^34. The use of these human samples is in accordance with regulations of the IRB for Protection of Human Subjects.
The ability of the KAUS compounds to left-shift the OEC (stabilize the R-state and/or destabilize the T-state) and increase the oxygen affinity of Hb in normal whole blood or free human hemoglobin was determined by multipoint tonometry as previously reported^20. First, cell free normal human hemoglobin (1 mM) or normal whole blood (hematocrit of 20%) was incubated with 1 mM or 2 mM final test compound (KAUS-28, KAUS-29, KAUS-33, KAUS-38 or KAUS-39) for 1.5 h at 37° C. Following incubation, the mixture was equilibrated in a tonometer with oxygen tensions of 6, 20 and 60 mmHg for 10 min each, and pO2 (mmHg) and sO2 (%) values were measured thereafter using ABL 700 series automated blood gas analyzer (Radiometer America, Inc., Westlake, Ohio). The measured values of pO2 and sO2 at each oxygen tension level were then subjected to a non-linear regression analysis using the program Scientist (Micromath, Salt Lake City, Utah) to calculate P50 and the Hill coefficient (N) values. Time-dependent OEC studies (1 hr, 4 hr, 8 hr and 12 hr) were also performed for KAUS-28, KAUS-33, KAUS-38, and KAUS-39 at final compound concentration of 2 mM. ECA and the previously studied azolylacryloyl-carboxylate derivative, KAUS-15 were used as positive controls. Compounds were dissolved in DMSO to make 100-250 mM stock solutions, and DMSO was used in all control samples. All OEC studies were performed in duplicates.

[3] = tested on: SS cells (sickle red blood cells); assay: RBC morphological antisickling study under hypoxic condition; assay type: cell-based, human; conditions: 2 mM compound, 1 hr under air, then 4% oxygen/96% nitrogen at 37° C. for 5 hrs; for inhibition at 2000 µM: Homo sapiens, Erythrocyte, read-out: Reduction (inhibition) of RBC sickling
Source text: as §1
KAUS-38 and KAUS-39 at 2 mM concentrations were tested for their abilities to prevent RBC sickling under hypoxic condition following previously reported assay^20. Briefly SS cells were suspended in Hemox buffer (TCS Scientific Corp, Southampton, Pa.), pH 7.4, that contained 10 mM glucose and 0.2% bovine serum albumin. The solution was incubated under air in the absence (control) or presence of […] 2 mM concentration of test compound at 37° C. for 1 hr. Following, the suspension was incubated under hypoxic condition (4% oxygen/96% nitrogen) at 37° C. for 5 hrs. The suspension was fixed with 2% glutaraldehyde solution without exposure to air and then subjected to microscopic morphological analysis as previously reported […]

[4] = target: T2, cell free normal human hemoglobin (Homo sapiens, UniProt P68871+P69905); assay: Oxygen equilibrium curve (OEC) study with cell free hemoglobin, multipoint tonometry; assay type: biochemical; conditions: cell free normal human hemoglobin 1 mM; 1 mM or 2 mM compound
T2 construct: Hb was purified from discarded normal blood samples following published procedure and used for OEC study; from tissue; host or cells: discarded normal human blood samples
T2 sequence (P69905 2-142 limits assumed): as the sequence (P69905 2-142 limits assumed) above
T2 sequence (P68871 2-147 limits assumed): as the sequence (P68871 2-147 limits assumed) above
Source text: as §1
The ability of the KAUS compounds to left-shift the OEC (stabilize the R-state and/or destabilize the T-state) and increase the oxygen affinity of Hb in normal whole blood or free human hemoglobin was determined by multipoint tonometry as previously reported^20. […] Following incubation, the mixture was equilibrated in a tonometer with oxygen tensions of 6, 20 and 60 mmHg for 10 min each, and pO2 (mmHg) and sO2 (%) values were measured thereafter using ABL 700 series automated blood gas analyzer (Radiometer America, Inc., Westlake, Ohio). The measured values of pO2 and sO2 at each oxygen tension level were then subjected to a non-linear regression analysis using the program Scientist (Micromath, Salt Lake City, Utah) to calculate P50 and the Hill coefficient (N) values. […]

Row | OEC effect (increase of Hb affinity for oxygen, left shift) ([2]; 1 mM compound) | OEC effect (increase of Hb affinity for oxygen, left shift) ([2]; 2 mM compound) | melting point | SMILES | Ratio of Cpd/Adduct (Adduct peak) [1] | Ratio of Cpd/Adduct (Compound peak) [1] | Reactivity with L-Cys (adduct share) [1] | inhibition at 2000 µM [3] | Reduction (inhibition) of RBC sickling [3] | Effect on Hb affinity for oxygen in cell free Hb (in words) [4]
1 | 9.9% | 16.5% | – | O=C(/C=C/c1ncc[nH]1)c1ccc(OC2CCCCO2)cc1 (stereo not shown) [KAUS-33, (E)-3-(1H-imidazol-2-yl)-1-(4-((tetrahydro-2H-pyran-2-yl)oxy)phenyl)prop-2-en-1-one] | 24.8 | 75.2 | 24.8% | – | – | –
2 | – | – | > 250 °C (dec.) | COc1cc(C(=O)/C=C/c2ncc[nH]2)ccc1O [KAUS-36, (E)-1-(4-hydroxy-3-methoxyphenyl)-3-(1H-imidazol-2-yl)prop-2-en-1-one] | – | – | – | – | – | –
3 | 8% | 14% | – | COc1cccc(C(=O)/C=C/c2ncc[nH]2)c1 [KAUS-29, (E)-3-(1H-imidazol-2-yl)-1-(3-methoxyphenyl)prop-2-en-1-one] | 2.1 | 97.9 | – | – | – | –
4 | – | – | 250 to 253 °C | O=C(/C=C/c1ncc[nH]1)c1ccc(O)cc1 [KAUS-32, (E)-1-(4-hydroxyphenyl)-3-(1H-imidazol-2-yl)prop-2-en-1-one] | – | – | – | – | – | –

The remaining lines, values behind:

Row | SMILES | OEC effect (increase of Hb affinity for oxygen, left shift) ([2]; 1 mM compound) | OEC effect (increase of Hb affinity for oxygen, left shift) ([2]; 2 mM compound) | melting point | Ratio of Cpd/Adduct (Adduct peak) [1] | Ratio of Cpd/Adduct (Compound peak) [1] | Reactivity with L-Cys (adduct share) [1] | inhibition at 2000 µM [3] | Reduction (inhibition) of RBC sickling [3] | Effect on Hb affinity for oxygen in cell free Hb (in words) [4]
5 | O=C(/C=C/c1ncc[nH]1)c1ccccc1 [KAUS-28, (E)-3-(1H-imidazol-2-yl)-1-phenylprop-2-en-1-one] | – | – | – | 6.9 | 93.1 | – | – | – | –
6 | C=C(CC)C(=O)c1ccc(OCC(=O)O)c(Cl)c1Cl [Ethacrynic Acid, ethacrynic acid, reference compound] | 6.1% | 21.3% | – | 96.3 | 3.7 | – | 18% | – | –
7 | O=C(O)CCCOc1ccc(C(=O)/C=C/c2ncc[nH]2)cc1Cl [KAUS-15, reference compound] | 1% | 7% | – | – | – | – | – | 6% | significantly more potent effect with cell free Hb than with whole blood
8 | O=C(/C=C/c1ncc[nH]1)c1ccc(OCc2ccccc2)cc1 [KAUS-34, (E)-1-(4-(benzyloxy)phenyl)-3-(1H-imidazol-2-yl)prop-2-en-1-one] | – | – | > 250 °C (dec.) | – | – | – | – | – | –
9 | COc1ccc(C(=O)/C=C/c2ncc[nH]2)cc1 [KAUS-38, (E)-3-(1H-imidazol-2-yl)-1-(4-methoxyphenyl)prop-2-en-1-one] | 8% | 14% | – | 37.8 | 62.2 | 37.8% | 18% | – | –
10 | COc1ccc(C(=O)/C=C/c2ncc[nH]2)cc1OC [KAUS-39, (E)-1-(3,4-dimethoxyphenyl)-3-(1H-imidazol-2-yl)prop-2-en-1-one] | – | – | 222 to 223 °C | 27.2 | 72.8 | 27.2% | 5% | – | –
